Reference: US5491135A (priority 1993, dated 1996)
Where “and” joins values, the source holds several entries; their conditions need not be identical. Equal entries are not always repeated. Where two headings read alike, the source gives them in different places.

Experiments:
flaviviruses = test: Antiviral test of 2-dGlc; format: cell-based; settings: alone
simian varicella virus = test: Simian varicella virus infection in African green monkeys; format: in vivo, African green monkey; settings: for Viremia, Mean PFU: mg/kg/d i.v.
Method: Fifteen African green monkeys were weighed and bled for clinical chemistry hematology baselines. […] Each of the 15 monkeys were infected with simian varicella virus by intratracheal inoculation of 3.7×10^4 plaque forming units (PFU) of simian varicella virus. […] Control monkeys, service as infection controls, received twice daily intravenous injections of phosphate buffered saline administered at 1.0 ml/kg of body weight. A second group of three monkeys received PALA at 50 mg/kg/day given by intravenous bolus injection into the saphenous vein. A third group was given a lower dose of PALA at 20 mg/kg/day administered in a similar manner. Acyclovir treatment was administered at a subeffective dose of 10 mg/kg/day also given as intravenous bolus injection into the saphenous vein. A fifth group of three monkeys received a combined treatment of PALA at 20 mg/kg/day and acyclovir at 10 mg/kg/day. The drugs were injected into opposite veins at each time of treatment.
Drug solutions were prepared daily prior to treatment. Treatment was begun 24 hours after virus inoculation. PALA was provided as a solution in vials containing 5 ml at 100 mg/ml. The contents of three vials were pooled and seven ml of the pooled drug diluted to 28 ml to give 25 mg/ml. Five ml of this solution was diluted to […] to give 10 mg/ml. Drug was administered twice daily resulting in total daily doses of 50 or 20 mg/kg/day.
Acyclovir received as a gift from Burroughs Wellcome was weighed out as a 200 mg quantity. This was diluted with 5 ml of PBS and pH adjusted to 11.0 with 1N NaOH to effect solution. This was subsequently diluted to 40 ml to give a solution of 5 mg/ml and sterilized by filtration. Again, 1 ml per kg of body weight was administered by intravenous injection twice daily resulting in a dose of 10 mg/kg/day.
The clinical course of simian varicella infection was followed by collection of 2 ml of blood in heparin on day 2, 5, 7, 9 and 11 post-inoculation. The lymphocytes in the 2 ml specimen were separated on ficol-hypaque gradients, washed twice in RPMI-1640 medium and suspended in 10 ml of this medium. The 10 ml volume was divided between two 25 cm^2 tissue culture flasks seeded 24 hours earlier with Vero cells. After 5-7 days incubation, the culture fluids were discarded from the flasks and the cell monolayer fixed with methanol and stained with methylene blue-basic fuchsin. When dried the number of plaques in each flask were counted and the mean number of plaques between the two paired flasks were determined and expressed as a quantitation of viremia per ml of blood.
Rash was evaluated daily using a subjective scoring of severity from ± to 4+. A ± score indicates less than 10 vesicles seen on the skin of the monkey while 4+ indicates numerous vesicles covering the majority of the body surface. General clinical condition was assessed daily and anorexia noted by counting the number of food biscuits consumed daily. Monkeys dying during the course of the experiment were necropsied and simian varicella was determined as the cause of death based on the typical pathology. Baseline hematology and clinical chemistry tests were performed at three days before virus inoculation and again on day 0, immediately before virus inoculation. Following inoculation of simian varicella virus blood was taken for hematology and clinical chemistry tests at 3, 7, 9 and 11 days.
At 14 and 21 days after virus inoculation, blood was taken and the serum separated for quantitation of antibody. Antibody titers were obtained in a serum neutralization test employing a plaque reduction assay. The antibody titer expressed is the dilution of serum resulting in an 80 percent reduction in the number of plaques from that number occurring in control cultures without added serum.

[1] = system: respiratory syncytial virus (RSV); test: RSV infection in cotton rats, lung titre; format: in vivo, cotton rat
From the text: 1. 50 to 100 g cotton rats of either sex inoculated i.n. with RS A2 (pool 8-28-92) on day 0.
2. On day +1 animals were given placebo or PALA as follows:
3. All animals killed on day +4 and their lungs tested for RSV levels.

herpesvirus = settings: cited from earlier work
[2] = PALA 50, rifampicin 10 or both, mg/kg/day i.v.
[3] = day 10, PALA 50, rifampicin 10 mg/kg/d or both

O=CC[C@@H](O)[C@H](O)[C@H](O)CO [2-dGlc, 2-deoxy-D-glucose]
effect against flaviviruses (flaviviruses): no effect

Nc1nc2c(ncn2COCCO)c(=O)[nH]1 [Acyclovir, reference compound]
effect on rash / viremia (simian varicella virus; PALA 20, Acyclovir 10 or both, mg/kg/day i.v.): no effect in moderating viremia
thrombocytopenia on day 11 (simian varicella virus; PALA 50 or Acyclovir 10 mg/kg/day): two monkeys
Viremia, Mean PFU (simian varicella virus; day 7, PALA 20, Acyclovir 10 or both): > 1000 PFU and 504 PFU
Viremia, Mean PFU (simian varicella virus; day 11, PALA 20, Acyclovir 10 or both): 0 PFU

NC(=O)c1ncn([C@@H]2O[C@H](CO)[C@@H](O)[C@H]2O)n1 [RIBAVIRIN, reference compound]
RSV lung titre ([1]; ribavirin 40 mg/kg, alone or + PALA 3 mg/kg, individual animal): 3.4 LOG10 and 2.9 LOG10 and 3.5 LOG10
RSV lung titre, mean (SD) ([1]; ribavirin 40 mg/kg/day, alone or + PALA 3): 3.3 (0.3) LOG10 /G Lung

CO[C@H]1/C=C/O[C@@]2(C)Oc3c(C)c(O)c4c(O)c(c(/C=N/N5CCN(C)CC5)c(O)c4c3C2=O)NC(=O)/C(C)=C\C=C\[C@H](C)[C@H](O)[C@@H](C)[C@@H](O)[C@@H](C)[C@H](OC(C)=O)[C@@H]1C [Rifampicin, reference compound]
lesion development (vaccinia virus; [2]): appreciable skin lesions
virus titers in skin (vaccinia virus; [2]): Higher titers
Weight (vaccinia virus; day 0, PALA 50, rifampicin 10 mg/kg/d or both): 5.2 kg and 2.6 kg and 4.2 kg
Vaccinia Lesion Score, group mean (vaccinia virus; day 3, PALA 50, rifampicin 10 mg/kg/d or both): 0.4
Vaccinia Lesion Score, group mean (vaccinia virus; day 6, PALA 50, rifampicin 10 mg/kg/d or both): 1.2
Vaccinia Lesion Score (vaccinia virus; day 6, PALA 50, rifampicin 10 mg/kg/d or both, per monkey): 1.6 and 0.7 and 1.4
Vaccinia Lesion Score, group mean (vaccinia virus; day 7, PALA 50, rifampicin 10 mg/kg/d or both): 1.7
Vaccinia Lesion Score, group mean (vaccinia virus; day 8, PALA 50, rifampicin 10 mg/kg/d or both): 1.3
Vaccinia Lesion Score, group mean (vaccinia virus; day 9, PALA 50, rifampicin 10 mg/kg/d or both): 1.2
Vaccinia Lesion Score, group mean (vaccinia virus; [3]): 1.6
Weight (vaccinia virus; [3]): 4.6 kg and 2.4 kg and 3.8 kg
Vaccinia Lesion Score, group mean (vaccinia virus; day 13, PALA 50, rifampicin 10 mg/kg/d or both): 0.9
Weight (vaccinia virus; day 14, PALA 50, rifampicin 10 mg/kg/d or both): 4.6 kg and 2.4 kg and 3.8 kg
Weight (vaccinia virus; day 21, PALA 50, rifampicin 10 mg/kg/d or both): 4.8 kg and 2.6 kg and 4.0 kg
signs of toxicity (vaccinia virus; except one monkey at PALA 125 mg/kg bolus): No appreciable signs of toxicity
Titer of vaccinia virus in skin biopsy (vaccinia virus; head prints day 6, PALA 50, rifampicin 10 mg/kg/d or both): 1.5 × 10^7 PFU/ml and 1.2 × 10^5 PFU/ml and 1.1 × 10^5 PFU/ml

O=C(O)CP(=O)(O)O [PAA, phosphonoacetic acid, reference compound]
antiherpesvirus activity (herpesvirus): selective antiherpesvirus agent
